Assay results reported in PMC4494766 (Monatshefte Fur Chemie, 2011).
Values after ≈ are worked out from the molar mass of the structure shown.

Legend:
H37Rv = assay: Widened tuberculostatic tests; type: cell-based, Mycobacterium
Wells = assay: Widened tuberculostatic tests; type: cell-based, Mycobacterium
Fortuitum = assay: Widened tuberculostatic tests; type: cell-based, Mycobacterium
Scrofulaceum = assay: Widened tuberculostatic tests; type: cell-based, Mycobacterium
Kansasii = assay: Widened tuberculostatic tests; type: cell-based, Mycobacterium
[1] = test system: M. tuberculosis H37Rv strain; assay: Tuberculostatic activity, test-tube successive dilution in Youmans' medium; type: cell-based; details: Mycobacterium tuberculosis
Intracellularum = assay: Widened tuberculostatic tests; type: cell-based, Mycobacterium
An5 = assay: Widened tuberculostatic tests; type: cell-based, Mycobacterium
[2] = test system: M. tuberculosis wild-type strain sp. 192 fully sensitive; assay: Tuberculostatic activity, test-tube successive dilution in Youmans' medium; type: cell-based; details: Mycobacterium tuberculosis
Smegmatis = assay: Widened tuberculostatic tests; type: cell-based, Mycobacterium
Phlei = assay: Widened tuberculostatic tests; type: cell-based, Mycobacterium
Kirchberg = assay: Widened tuberculostatic tests; type: cell-based, Mycobacterium
[3] = test system: A549 and HCT116 cell lines; assay: MTT cytotoxicity, summary statements without cell line; type: cell-based; details: Homo sapiens, read-out: IC 50 (ca., cell line not stated)
[4] = test system: human non-small lung cancer cell line A549; assay: MTT viability assay; type: cell-based; details: 120 h

| Structure (SMILES) | MIC (H37Rv) [μg cm^−3] | MIC (Wells) [μg cm^−3] | MIC (Fortuitum) [μg cm^−3] | MIC (Scrofulaceum) [μg cm^−3] | MIC (Kansasii) [μg cm^−3] | MIC [1] [µg/mL] | MIC (Intracellularum) [μg cm^−3] | MIC (An5) [μg cm^−3] | MIC [2] [µg/mL] | MIC (Smegmatis) [μg cm^−3] | MIC (Phlei) [μg cm^−3] | MIC (Kirchberg) [μg cm^−3] | IC50 [3] [µM] | IC50 [4] [µM] |
| --- | --- | --- | --- | --- | --- | --- | --- | --- | --- | --- | --- | --- | --- | --- |
| CSC(=NNC(=O)c1ccc(O)cc1)SC [Compound 10, Dimethyl 4-hydroxybenzoylcarbonohydrazonodithioate] | 6.2 | 12.5 | 100 | 50 | 25 | 3.1 (≈ 12.1 µM) | 100 | 6.2 | 6.2 (≈ 24.2 µM) | 100 | 100 | 50 | ~100 |  |
| CSC(=NNC(=O)c1ccccc1O)SC [Compound 8, Dimethyl 2-hydroxybenzoylcarbonohydrazonodithioate] |  |  |  |  |  |  |  |  | 25 (≈ 97.5 µM) |  |  |  |  |  |
| CSC(=NNC(=O)c1ccccc1[N+](=O)[O-])SC [Compound 6, Dimethyl 2-nitrobenzoylcarbonohydrazonodithioate] |  |  |  |  |  | 25 (≈ 87.6 µM) |  |  | 50 (≈ 175 µM) |  |  |  |  |  |
| N.N.[Cl][Pt][Cl] [Cis-Pt, Cisplatin] |  |  |  |  |  |  |  |  |  |  |  |  |  | 0.63 ± 0.018 |
| CSC(=NNC(=O)c1ccccc1Cl)SC [Compound 2, Dimethyl 2-chlorobenzoylcarbonohydrazonodithioate] |  |  |  |  |  | 25 (≈ 91 µM) |  |  | 25 (≈ 91 µM) |  |  |  |  |  |
| CSC(=NNC(=O)c1ccc(Cl)c(Cl)c1)SC [Compound 5, Dimethyl 3,4-dichlorobenzoylcarbonohydrazonodithioate] | 6.2 | 6.2 | 100 | 25 | 6.2 | 6.2 (≈ 20 µM) | 100 | 12.5 | 3.1 (≈ 10 µM) | 100 | 100 | 12.5 | ~30 |  |
| COc1ccc(CC(=O)NN=C(SC)SC)cc1OC [Compound 13, Dimethyl 2-(3,4-dimethoxyphenyl)acetylcarbonohydrazonodithioate] |  |  |  |  |  | 25 (≈ 79.5 µM) |  |  | 50 (≈ 159 µM) |  |  |  |  |  |
| CSC(=NNC(=O)c1cccc(O)c1)SC [Compound 9, Dimethyl 3-hydroxybenzoylcarbonohydrazonodithioate] | 6.2 | 6.2 | 25 | 25 |  | 6.2 (≈ 24.2 µM) | 25 | 6.2 | 6.2 (≈ 24.2 µM) |  |  |  |  |  |
| COc1ccc(C(=O)NN=C(SC)SC)cc1 [Compound 11, Dimethyl 4-methoxybenzoylcarbonohydrazonodithioate] |  |  |  |  |  | 25 (≈ 92.5 µM) |  |  | 25 (≈ 92.5 µM) |  |  |  |  |  |
| COc1cccc2c1C(=O)c1c(O)c3c(c(O)c1C2=O)C[C@@](O)(C(=O)CO)C[C@@H]3O[C@H]1C[C@H](N)[C@H](O)[C@H](C)O1 [Dox, doxotubicin] |  |  |  |  |  |  |  |  |  |  |  |  |  | 0.008 ± 0.0011 |
| CSC(=NNC(=O)c1ccc(Cl)cc1)SC [Compound 3, Dimethyl 4-chlorobenzoylcarbonohydrazonodithioate] | 12.5 | 12.5 | 100 | 100 | 25 | 6.2 (≈ 22.6 µM) | 50 | 12.5 | 12.5 (≈ 45.5 µM) | 100 | 100 | 25 |  |  |
| COc1cc(C(=O)NN=C(SC)SC)cc(OC)c1OC [Compound 12, Dimethyl 3,4,5-trimethoxybenzoylcarbonohydrazonodithioate] |  |  |  |  |  | 25 (≈ 75.7 µM) |  |  | 50 (≈ 151 µM) |  |  |  |  |  |
| CSC(=NNC(=O)c1ccc(Cl)cc1Cl)SC [Compound 4, Dimethyl 2,4-dichlorobenzoylcarbonohydrazonodithioate] | 6.2 | 12.5 |  | 25 | 25 | 6.2 (≈ 20 µM) |  | 6.2 | 6.2 (≈ 20 µM) |  |  |  |  |  |
